Reference: US5700640A, “Inducers of gamma globin gene expression and screening assays therefor” (priority 1994, dated 1997)

Experiments:
[1] = tested on: gamma globin-luciferase reporter constructs in K562 cells; assay: BA inducibility of different gamma globin-reporter gene constructs in transiently transfected K562 cells; format: cell-based, human
Source text: The entire human globin gene locus, spanning approximately 150 kilobases, is shown schematically in FIG. 1. Depicted are the different globin structural genes and cis-active regulatory elements (e.g., promoters and enhancers). To construct gamma globin reporter gene plasmids, nucleic acid fragments comprising nucleotide sequences normally flanking (i.e., at either the 5' or 3' end of) the gamma globin gene were obtained and subcloned into a plasmid encoding a reporter gene. The human gamma globin 5' promoter fragment consisted of nucleotides -1200 to +30, relative to the start site of transcription (nucleotide numbers 38205 to 39435 of the human gamma globin gene in the GENEMBL database, accession number J00179). The promoter fragment was obtained from human genomic DNA by polymerase chain reaction (PCR) amplification using oligonucleotide primers of the sequences: […]
These constructs are illustrated schematically in FIG. 2.
In a first series of experiments, K562 cells transiently transfected with the different gamma globin-reporter genes described in Example 1 were treated with butyric acid (BA). After treatment, the level of reporter gene activity (i.e., luciferase activity) in the treated cells was compared to determine the BA-inducibility of the different reporter gene constructs. The results are shown graphically in FIG. 2, which illustrates the fold induction of luciferase activity by BA relative to untreated cells. […] All other constructs tested (including gammaSV40, beta3'PE, HS2/3gamma3'PE and gamma) were at least 2 fold less responsive to BA treatment.
To test whether the increased sensitivity of the gamma globin promoter to BA was due to a specific property of the globin 3' Proximal Enhancer or if this was a property of transcriptional enhancers in general, two copies of the 72 bp repeat of the SV40 enhancer (isolated by PCR from the simian virus 40 genome) were substituted for the 3' Proximal Enhancer in the context of the gamma globin promoter (construct gammaSV40). […] This may be due to the unnatural proximity of these enhancer sequences to the gamma globin promoter in this construct. Normally, these sequence reside over 30 kB upstream of the promoter and one function of BA in vivo may be to promote interaction between the chromosomal LCR sequences and the gamma globin promoter. Artificially positioning the LCR components near the gamma globin promoter may have in fact complemented the effect of BA. Thus, empirically, it appears that maintaining the cis-active elements of the gamma globin locus in their natural context is important for developing the most sensitive reporter gene assay system for detecting gone induction by short chain fatty acids such as BA.

[2] = tested on: GATA-1 mRNA; assay: Northern hybridization of GATA-1 mRNA in treated K562 cells; format: cell-based, human
Description: (§1) Total RNA was prepared by the method of McDonald as described in Sambrook et al., (1989) Molecular Cloning: A Laboratory Manual, 2nd Edition, Cold Spring Harbor Laboratory Press. 10 μg total cellular RNA was electrophoresed through agarose gels containing 3.3% formaldehyde. The electrophoresed RNA was then transferred to nitrocellulose filters by standard methods. Each sample was hybridized to specific probes for gamma globin mRNA, mRNA encoding the erythroid specific transcription factor GATA-1 and 28S ribosomal RNA (which was used for standardization). The gamma globin and GATA-1 probes were cDNA probes, which were labeled with ^32 p by random priming reactions (Promega Biotech Inc.). The 28S ribosomal RNA probe was an oligonucleotide having the sequence 5' […] 3' (SEQ ID NO: 3), which was labeled by 5' end labeling using T4 polynucleotide kinase (New England Biolabs). Nucleotide probes were hybridized to the RNA nitrocellulose filters according to standard techniques. After hybridization, radioactive signals on the nitrocellulose filters were directly quantified using a BioRad GS-250 Molecular Imager. mRNA hybridization intensities were normalized to the amount of 28S ribosomal RNA present for each sample.

[3] = tested on: gamma globin-regulated luciferase mRNA; assay: cells; format: cell-based, human; settings: Homo sapiens, K562, 5 h, read-out: increase in luciferase mRNA
Description: as §1, with “sample. The results are summarized below in Table 1:” for “sample.”
To determine if BA exerts its inductive effects by acting directly on pre-existing proteins in the cells, the effect of the protein synthesis inhibitor cycloheximide (CHX) on BA-induced expression of RNA was analyzed. In these experiments, gamma3'PE cells were incubated with 150 μg/ml CHX for 2 hr prior to addition of BA (5 mM). Control cells were incubated with either CHX or BA alone or were mock incubated. Cells were harvested 5 hr later for preparation of total RNA. RNA samples were electrophoresed, transferred to nitrocellulose and hybridized to a ^32 P-labeled luciferase cDNA probe as described in Example 4. The radioactive signals on the filter were quantitated using a BioRad GS-250 Molecular Imager and mRNA levels were normalized to values obtained for mock treated samples. […]

[4] = tested on: GATA-1 mRNA; assay: GATA-1 mRNA level (Northern) with BA and/or cycloheximide in gamma3'PE cells; format: cell-based, human; settings: BA 5 mM, 5 hr
Description: To determine if BA exerts its inductive effects by acting directly on pre-existing proteins in the cells, the effect of the protein synthesis inhibitor cycloheximide (CHX) on BA-induced expression of RNA was analyzed. In these experiments, gamma3'PE cells were incubated with 150 μg/ml CHX for 2 hr prior to addition of BA (5 mM). Control cells were incubated with either CHX or BA alone or were mock incubated. Cells were harvested 5 hr later for preparation of total RNA. RNA samples were electrophoresed, transferred to nitrocellulose and hybridized to a ^32 P-labeled luciferase cDNA probe as described in Example 4. The radioactive signals on the filter were quantitated using a BioRad GS-250 Molecular Imager and mRNA levels were normalized to values obtained for mock treated samples. The results are presented graphically in FIG. 12, Panel A. BA treatment alone increased gamma globin-regulated luciferase mRNA by approximately 6 fold.
The results, normalized to mock treated samples, are depicted graphically in FIG. 12, Panel B. In contrast to luciferase mRNA which was induced by BA treatment, the level of GATA-1 RNA decreases about 3 fold in response to BA treatment.

[5] = tested on: erythroid differentiation of cultured cells; settings: Leder and Leder 1975; cited from earlier work
[6] = Blau et al. 1993; cited from earlier work

CCCC(=O)O [BA, butyric acid]
effect of LCR sequences on BA sensitivity of gamma3'PE construct ([1]; HS2/3gamma3'PE vs gamma3'PE): reduce the sensitivity of the gamma3'PE construct to BA | BA induction of beta3'PE construct ([1]; beta globin promoter with 3'Proximal Enhancer): not inducible | BA responsiveness of gamma3'PE construct ([1]; gamma3'PE, fold induction relative to untreated cells): most responsive to BA | BA induction of gamma construct ([1]; gamma globin promoter without 3' Proximal Enhancer): inducible, albeit to a lesser extent than when in the context of the 3' Proximal Enhancer | SV40 enhancer effect on BA responsiveness of gamma globin promoter ([1]; gammaSV40): not effective in augmenting the responsiveness of the gamma globin promoter to BA | fold lower BA responsiveness of other constructs than gamma3'PE ([1]; gammaSV40, beta3'PE, HS2/3gamma3'PE and gamma, transient transfection): at least 2 fold | BA induction of promoterless constructs ([1]; luciferase gene only or fused to 3'Proximal Enhancer): not induced by BA | fold induction at 5000 µM ([2]; Homo sapiens, K562, 96 h, read-out: Fold Induction, GATA-1 RNA): 1 | Raw Value, GATA-1 RNA ([2]; K562 cells, 5 mM, 96 hours): 2.23 × 10^5 | Normalized Value, GATA-1 RNA ([2]; normalized to 28S ribosomal RNA, K562 cells, 5 mM, 96 hours): 5.8 × 10^4 | fold induction at 5000 µM [3]: ~6 | decrease in GATA-1 RNA level [4]: about 3 fold | induction of erythroid differentiation [5]: potent inducer of erythroid differentiation of cultured cells | toxicity of high dosages [6]: associated with toxicity, in particular neurologic toxicity
